Like-named read-outs stand apart in the source and are kept apart here.
Legend:
[1] = system: Cabbage Looper (Trichoplusia ni) ("CL"), second instar larvae; experiment: Bioassay on cabbage looper (CL), 128-well diet tray assay; type: in vivo; conditions: for CL rating: C = not tested, D = no activity noticed
How it was run: (§1)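 Sealed trays, 25° C., 14:10 light:dark, 5–7 d. Per-well % mortality recorded, mean of eight wells reported.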

[2] = system: Beet Armyworm (Spodoptera exigua) ("BAW"), second instar larvae; experiment: Bioassay on beet armyworm (BAW), 128-well diet tray assay; type: in vivo; conditions: for pest or weed control at 50 µg/cm2: Spodoptera exigua; for BAW rating: C = not tested, D = no activity noticed
How it was run: as §1

[3] = Trichoplusia ni, read-out: CL (Biological Results, rating)
[4] = read-out: BAW (Biological Results, rating)
[5] = Trichoplusia ni, read-out: CL rating

Row | SMILES | pest or weed control at 50 µg/cm2 [1, 3] [%] | pest or weed control at 50 µg/cm2 [2, 4] [%] | pest or weed control at 50 µg/cm2 [1, 5] [%] | pest or weed control at 50 µg/cm2 ([2]; read-out: BAW rating) [%] | also measured
1 | Cc1ccc(OCC(F)(F)F)c(N2C(=O)CS/C2=N\C(=O)Nc2ccc(-c3ncn(-c4cccc(OC(F)(F)F)c4)n3)cc2F)c1 [Compound J121, (Z)-1-(2-Fluoro-4-(1-(3-(trifluoromethoxy)phenyl)-1H-1,2,4-triazol-3-yl)phenyl)-3-(3-(5-methyl-2-(2,2,2-trifluoroethoxy)phenyl)-4-oxothiazolidin-2-ylidene)urea] | 50 to 100 | 0 to 50 |  |  | 
2 | Cc1ccc(C(C)C)c(N2C(=O)CS/C2=N\C(=O)Nc2ccc(-c3ncn(-c4ccc(OC(F)(F)F)cc4)n3)cc2Br)c1 [Compound J217, (Z)-1-(2-Bromo-4-(1-(4-(trifluoromethoxy)phenyl)-1H-1,2,4-triazol-3-yl)phenyl)-3-(3-(2-isopropyl-5-methylphenyl)-4-oxothiazolidin-2-ylidene)urea] | 50 to 100 | 50 to 100 |  |  | 
3 | COC(c1ccc(C)cc1N1C(=O)CS/C1=N\C(=O)Nc1ccc(-c2nc(-c3ccc(OC(F)(F)F)cc3)no2)cc1F)C(F)(F)F (stereo not shown) [Compound J428, (Z)-1-(2-Fluoro-4-(3-(4-(trifluoromethoxy)phenyl)-1,2,4-oxadiazol-5-yl)phenyl)-3-(3-(5-methyl-2-(2,2,2-trifluoro-1-methoxyethyl)phenyl)-4-oxothiazolidin-2-ylidene)urea] |  |  | 50 to 100 | 50 to 100 | 
4 | Cc1ccc(COCC(Cl)(Cl)Cl)c(N2C(=O)CS/C2=N\C(=O)Nc2ccc(-c3ncn(-c4ccc(C(F)(F)F)cc4)n3)cc2F)c1 [Compound J550] |  |  |  |  | CL rating ([1]; Table ABC, species CL): A (50-100); BAW rating ([2]; Table ABC, species BAW): A (50-100)
5 | Cc1ccc(Cc2cccc(C(F)(F)F)c2)c(N2C(=O)CS/C2=N\C(=O)Nc2ccc(-c3ncn(-c4ccc(OC(F)(F)F)cc4)n3)cc2C)c1 [Compound J440, (Z)-1-(3-(5-Methyl-2-(3-(trifluoromethyl)benzyl)phenyl)-4-oxothiazolidin-2-ylidene)-3-(2-methyl-4-(1-(4-(trifluoromethoxy)phenyl)-1H-1,2,4-triazol-3-yl)phenyl)urea] |  |  | 0 to 50 | 50 to 100 | 
6 | CCCc1ccc(C)cc1N1C(=O)CS/C1=N\C(=O)Nc1ccc(-c2nnc(-c3ccc(OC(F)(F)F)cc3)o2)cc1F [Compound J608, (Z)-1-(2-Fluoro-4-(5-(4-(trifluoromethoxy)phenyl)-1,3,4-oxadiazol-2-yl)phenyl)-3-(3-(5-methyl-2-propylphenyl)-4-oxothiazolidin-2-ylidene)urea] |  |  | 50 to 100 | 50 to 100 | 
7 | CCCN(CCC)c1ccc(C(C)C)c(N2C(=O)CS/C2=N\C(=O)Nc2ccc(-c3ncn(-c4ccc(OC(F)(F)F)cc4)n3)cc2F)c1 [Compound J108, (Z)-1-(3-(5-(Dipropylamino)-2-isopropylphenyl)-4-oxothiazolidin-2-ylidene)-3-(2-fluoro-4-(1-(4-(trifluoromethoxy)phenyl)-1H-1,2,4-triazol-3-yl)phenyl)urea] | 50 to 100 | 50 to 100 |  |  | 
8 | COC(C)c1ccc(C)cc1N1C(=O)CS/C1=N\C(=O)Nc1ccc(-c2ncn(-c3ccc(OC(F)(F)F)cc3)n2)cc1Br (stereo not shown) [Compound J220, (Z)-1-(2-Bromo-4-(1-(4-(trifluoromethoxy)phenyl)-1H-1,2,4-triazol-3-yl)phenyl)-3-(3-(2-(1-methoxyethyl)-5-methylphenyl)-4-oxothiazolidin-2-ylidene)urea] | 50 to 100 | 50 to 100 |  |  | 
9 | Cc1ccc(OCCC(F)(F)F)c(N2C(=O)CS/C2=N\C(=O)Nc2ccc(-c3ncn(-c4ccc(S(=O)(=O)C(F)(F)F)cc4)n3)cc2F)c1 [Compound J369, (Z)-1-(2-Fluoro-4-(1-(4-((trifluoromethyl)sulfonyl)phenyl)-1H-1,2,4-triazol-3-yl)phenyl)-3-(3-(5-methyl-2-(3,3,3-trifluoropropoxy)phenyl)-4-oxothiazolidin-2-ylidene)urea] |  |  | 50 to 100 | 50 to 100 | 
10 | Cc1ccc(COCCF)c(N2C(=O)CS/C2=N\C(=O)Nc2ccc(-c3ncn(-c4ccc(S(F)(F)(F)(F)F)cc4)n3)cc2C)c1 [Compound J557] |  |  |  |  | CL rating ([1]; Table ABC, species CL): A (50-100); BAW rating ([2]; Table ABC, species BAW): A (50-100)
11 | Cc1ccc(C(C)C)c(N2C(=O)CS/C2=N\C(=O)Nc2ccc(-c3ncn(-c4ccc(OC(F)(F)F)cn4)n3)cc2F)c1 [Compound J270, (Z)-1-(2-Fluoro-4-(1-(5-(trifluoromethoxy)pyridin-2-yl)-1H-1,2,4-triazol-3-yl)phenyl)-3-(3-(2-isopropyl-5-methylphenyl)-4-oxothiazolidin-2-ylidene)urea] | 50 to 100 | 50 to 100 |  |  | 
12 | Cc1ccc(COCC(F)(F)F)c(N2C(=O)CS/C2=N\C(=O)Nc2ccc(-c3ncn(-c4ccc(C(F)(F)F)cc4)n3)cc2C)c1 [Compound J167, (Z)-1-(3-(5-Methyl-2-((2,2,2-trifluoroethoxy)methyl)phenyl)-4-oxothiazolidin-2-ylidene)-3-(2-methyl-4-(1-(4-(trifluoromethyl)phenyl)-1H-1,2,4-triazol-3-yl)phenyl)urea] | 50 to 100 | 50 to 100 |  |  | 
13 | CC(C)c1ccc(N(C)C)cc1N1C(=O)CS/C1=N\C(=O)Nc1ccc(-c2nc(-c3ccc(OC(F)(F)F)cc3)no2)cc1F [Compound J435, (Z)-1-(3-(5-(dimethylamino)-2-isopropylphenyl)-4-oxothiazolidin-2-ylidene)-3-(2-fluoro-4-(3-(4-(trifluoromethoxy)phenyl)-1,2,4-oxadiazol-5-yl)phenyl)urea] |  |  | 50 to 100 | 50 to 100 | 
14 | Cc1ccc(COCC(Cl)Cl)c(N2C(=O)CS/C2=N\C(=O)Nc2ccc(-c3ncn(-c4ccc(OC(F)(F)F)cc4)n3)cc2F)c1 [Compound J553] |  |  |  |  | CL rating ([1]; Table ABC, species CL): A (50-100); BAW rating ([2]; Table ABC, species BAW): A (50-100)
15 | Cc1ccc(OCCC(F)(F)F)c(N2C(=O)CS/C2=N\C(=O)Nc2ccc(-c3ncn(-c4ccc(S(=O)(=O)C(F)(F)F)cc4)n3)cc2C)c1 [Compound J373, (Z)-1-(3-(5-Methyl-2-(3,3,3-trifluoropropoxy)phenyl)-4-oxothiazolidin-2-ylidene)-3-(2-methyl-4-(1-(4-((trifluoromethyl)sulfonyl)phenyl)-1H-1,2,4-triazol-3-yl)phenyl)urea] |  |  | 50 to 100 | 50 to 100 | 
16 | Cc1ccc(C(C)C)c(N2C(=O)CS/C2=N\C(=O)Nc2ccc(-c3ncn(-c4ccc(OC(F)(F)C(F)(F)F)cc4)n3)c(C)c2)c1 [Compound J2] | 50 to 100 | 50 to 100 |  |  | 
17 | CCc1cc(-c2ncn(-c3ccc(OC(F)(F)F)cc3)n2)ccc1NC(=O)/N=C1\SCC(=O)N1c1cc(N(CC)CC)ccc1C(C)C [Compound J160, (Z)-1-(3-(5-(Diethylamino)-2-isopropylphenyl)-4-oxothiazolidin-2-ylidene)-3-(2-ethyl-4-(1-(4-(trifluoromethoxy)phenyl)-1H-1,2,4-triazol-3-yl)phenyl)urea] | 50 to 100 | 50 to 100 |  |  | 
18 | Cc1ccc(COCC(F)(F)F)c(N2C(=O)CS/C2=N\C(=O)Nc2ccc(-c3ncn(-c4ccc(C(F)(F)C(F)(F)F)cc4)n3)cc2F)c1 [Compound J793, (Z)-1-(2-Fluoro-4-(1-(4-(perfluoroethyl)phenyl)-1H-1,2,4-triazol-3-yl)phenyl)-3-(3-(5-methyl-2-((2,2,2-trifluoroethoxy)methyl)phenyl)-4-oxothiazolidin-2-ylidene)urea] |  |  |  |  | mortality at 50 µg/cm2 ([1]; Trichoplusia ni, Table ABC, species CL, 128-well diet tray assay, second instar larvae, read-out: CL rating (% control or mortality class)): 50 to 100%; BAW rating (% control or mortality class) ([2]; Table ABC, species BAW, 128-well diet tray assay, second instar larvae): A (50-100)
19 | COCOc1cc(-c2ncn(-c3ccc(OC(F)(F)F)cc3)n2)ccc1NC(=O)/N=C1\SCC(=O)N1c1cc(C)ccc1COCC(F)(F)F [Compound J173, (Z)-1-(2-(Methoxymethoxy)-4-(1-(4-(trifluoromethoxy)phenyl)-1H-1,2,4-triazol-3-yl)phenyl)-3-(3-(5-methyl-2-((2,2,2-trifluoroethoxy)methyl)phenyl)-4-oxothiazolidin-2-ylidene)urea] | 50 to 100 | 50 to 100 |  |  | 
20 | Cc1ccc(COCCF)c(N2C(=O)CS/C2=N\C(=O)Nc2ccc(-c3ncn(-c4ccc(S(F)(F)(F)(F)F)cc4)n3)cc2F)c1 [Compound J552] |  |  | 50 to 100 | 50 to 100 | 
21 | COc1ccc(OCCC(F)(F)F)c(N2C(=O)CS/C2=N\C(=O)Nc2ccc(-c3ncn(-c4ccc(OC(F)(F)F)cc4)n3)cc2)c1 [Compound J320, (Z)-1-(3-(5-Methoxy-2-(3,3,3-trifluoropropoxy)phenyl)-4-oxothiazolidin-2-ylidene)-3-(4-(1-(4-(trifluoromethoxy)phenyl)-1H-1,2,4-triazol-3-yl)phenyl)urea] | 50 to 100 | 50 to 100 |  |  | 
22 | COCOc1cc(-c2ncn(-c3ccc(OC(F)(F)F)cc3)n2)ccc1NC(=O)/N=C1\SCC(=O)N1c1cc(C)ccc1C(C)C [Compound J170, (Z)-1-(3-(2-Isopropyl-5-methylphenyl)-4-oxothiazolidin-2-ylidene)-3-(2-(methoxymethoxy)-4-(1-(4-(trifluoromethoxy)phenyl)-1H-1,2,4-triazol-3-yl)phenyl)urea] | 50 to 100 | 50 to 100 |  |  | 
23 | CC(=O)c1cc(-c2ncn(-c3ccc(OC(F)(F)F)cc3)n2)ccc1NC(=O)/N=C1\SCC(=O)N1c1cc(N(C)C)ccc1C(C)C [Compound J396, (Z)-1-(2-Acetyl-4-(1-(4-(trifluoromethoxy)phenyl)-1H-1,2,4-triazol-3-yl)phenyl)-3-(3-(5-(dimethylamino)-2-isopropylphenyl)-4-oxothiazolidin-2-ylidene)urea] |  |  | 50 to 100 | 50 to 100 | 

Reference: patent publication US20230077362A1 (CORTEVA AGRISCIENCE LLC, priority 2019, published 2023)
